Data set [1] addresses T1, C-X-C chemokine receptor type 2 (Homo sapiens, UniProt P25025).
T1 sequence (P25025 whole entry): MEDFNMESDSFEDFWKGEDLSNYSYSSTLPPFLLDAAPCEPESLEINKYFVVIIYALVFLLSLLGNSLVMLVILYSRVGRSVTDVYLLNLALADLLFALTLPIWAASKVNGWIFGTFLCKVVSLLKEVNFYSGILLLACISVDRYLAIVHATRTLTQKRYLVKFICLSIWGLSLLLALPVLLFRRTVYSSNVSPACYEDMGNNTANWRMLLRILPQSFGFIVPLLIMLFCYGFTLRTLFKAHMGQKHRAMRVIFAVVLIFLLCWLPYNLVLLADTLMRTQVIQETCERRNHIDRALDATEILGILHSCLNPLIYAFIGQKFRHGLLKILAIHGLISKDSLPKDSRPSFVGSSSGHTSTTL
The data set is classed as cell membranes, Membrane. To be noted: cho-k1.

The next data set deals with T2, Leukotriene C4 synthase (Cavia porcellus, UniProt A6XA80).
T2 sequence (A6XA80 whole entry): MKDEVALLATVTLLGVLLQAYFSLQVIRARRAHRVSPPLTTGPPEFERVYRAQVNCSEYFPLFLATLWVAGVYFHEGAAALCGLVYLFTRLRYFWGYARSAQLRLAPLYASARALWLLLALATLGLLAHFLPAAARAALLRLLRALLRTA
The data set is classed as tissue-based, Lung.

The target in a further data set is Cytochrome P450 2E1 (Homo sapiens, UniProt P05181). The following applies: bti-tn-5b1-4. Note: in other assays of this panel Not Active means under 50% inhibition at 10 µM.
Another data set concerns the target T3, Cathepsin G (Homo sapiens, UniProt P08311).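 Note: inhibition of Cathepsin G enzyme activity, tested on an AMC-conjugated peptide substrate; in other assays of this panel Not Active means under 50% inhibition at 10 µM.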
T3 sequence (P08311 whole entry): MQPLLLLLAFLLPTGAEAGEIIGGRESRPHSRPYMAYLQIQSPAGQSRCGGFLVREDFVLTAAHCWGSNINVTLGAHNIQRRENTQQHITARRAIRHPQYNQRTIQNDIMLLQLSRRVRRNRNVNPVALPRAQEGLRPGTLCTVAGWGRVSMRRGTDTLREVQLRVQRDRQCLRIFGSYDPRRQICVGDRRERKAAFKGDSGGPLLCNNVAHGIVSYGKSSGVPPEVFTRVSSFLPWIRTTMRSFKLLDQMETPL
The data set is classed as tissue-based. To be noted: neutrophil.

A further data set has as its target Glycine receptor (Rattus norvegicus, UniProt P22771+P24524+P07727+P20781). The data set is classed as cell membranes, Wistar, Spinal cord, Membrane. Note: in other assays of this panel Not Active means under 50% inhibition at 10 µM.
Another data set addresses T4, Neutrophil elastase (Homo sapiens, UniProt P08246).
T4 sequence (P08246 whole entry): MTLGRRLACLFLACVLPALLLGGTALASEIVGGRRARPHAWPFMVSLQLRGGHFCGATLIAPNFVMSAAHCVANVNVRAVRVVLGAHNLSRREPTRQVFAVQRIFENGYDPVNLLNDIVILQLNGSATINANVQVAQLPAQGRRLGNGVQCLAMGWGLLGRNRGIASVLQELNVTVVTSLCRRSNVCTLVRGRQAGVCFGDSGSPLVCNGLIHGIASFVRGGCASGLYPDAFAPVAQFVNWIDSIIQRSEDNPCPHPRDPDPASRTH
The data set is classed as tissue-based.

Another data set deals with T5, Glucocorticoid receptor (Homo sapiens, UniProt P04150).
T5 sequence (P04150 whole entry): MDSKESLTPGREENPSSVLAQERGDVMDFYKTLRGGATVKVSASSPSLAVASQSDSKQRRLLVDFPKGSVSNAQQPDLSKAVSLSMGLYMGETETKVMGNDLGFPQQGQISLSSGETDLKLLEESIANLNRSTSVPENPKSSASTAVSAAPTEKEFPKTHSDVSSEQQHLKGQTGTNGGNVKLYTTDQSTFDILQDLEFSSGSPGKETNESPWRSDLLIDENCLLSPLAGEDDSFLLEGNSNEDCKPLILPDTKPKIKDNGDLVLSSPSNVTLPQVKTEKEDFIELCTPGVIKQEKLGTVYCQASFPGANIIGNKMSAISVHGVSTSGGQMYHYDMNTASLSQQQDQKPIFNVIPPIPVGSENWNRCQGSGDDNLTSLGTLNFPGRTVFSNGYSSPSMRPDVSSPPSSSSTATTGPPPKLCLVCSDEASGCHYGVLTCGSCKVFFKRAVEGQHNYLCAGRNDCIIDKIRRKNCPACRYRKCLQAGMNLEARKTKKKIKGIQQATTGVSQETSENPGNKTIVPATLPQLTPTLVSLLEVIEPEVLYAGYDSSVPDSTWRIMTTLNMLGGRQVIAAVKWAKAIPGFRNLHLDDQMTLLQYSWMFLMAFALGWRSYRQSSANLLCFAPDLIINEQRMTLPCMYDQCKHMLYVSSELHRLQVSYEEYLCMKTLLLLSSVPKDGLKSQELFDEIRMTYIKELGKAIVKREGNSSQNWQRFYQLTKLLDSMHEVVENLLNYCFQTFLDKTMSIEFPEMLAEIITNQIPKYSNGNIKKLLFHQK
To be noted: hela s3.

The target in data set [2] is T6, Alpha-1D adrenergic receptor (Homo sapiens, UniProt P25100). Note: in other assays of this panel Not Active means under 50% inhibition at 10 µM.
T6 sequence (P25100 whole entry): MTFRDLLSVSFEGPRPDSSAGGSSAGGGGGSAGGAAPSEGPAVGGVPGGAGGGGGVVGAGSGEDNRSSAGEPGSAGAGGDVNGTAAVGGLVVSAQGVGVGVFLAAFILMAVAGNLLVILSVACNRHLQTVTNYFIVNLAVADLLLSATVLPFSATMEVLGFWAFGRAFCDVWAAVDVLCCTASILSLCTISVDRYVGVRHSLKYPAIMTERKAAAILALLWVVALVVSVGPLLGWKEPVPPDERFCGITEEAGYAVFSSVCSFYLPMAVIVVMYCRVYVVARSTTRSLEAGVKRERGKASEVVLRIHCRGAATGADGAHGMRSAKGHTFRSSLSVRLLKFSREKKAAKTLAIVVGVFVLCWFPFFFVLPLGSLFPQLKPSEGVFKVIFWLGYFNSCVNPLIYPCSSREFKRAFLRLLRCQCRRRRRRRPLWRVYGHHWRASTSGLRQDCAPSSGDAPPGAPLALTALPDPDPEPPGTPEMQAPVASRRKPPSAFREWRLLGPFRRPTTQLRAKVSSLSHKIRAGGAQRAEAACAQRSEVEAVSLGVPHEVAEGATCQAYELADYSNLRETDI
The data set is classed as cell membranes, HEK293, Membrane. The following applies: for IC50: hek293; for pIC50: read-out: IC50; for pKi: read-out: Ki.

Data set [3] in a line: DRUGMATRIX: Tumor Necrosis Factor (TNF), Non-Selective radioligand binding (ligand: [125I] TNF-alpha). To be noted: u-937; Not Active = under 50% inhibition at 10 µM. The data set is classed as cell membranes, Membrane.

pIC50, pKi: −log10 of the molar value.

Here are results for eleven molecules from ChEMBL document CHEMBL1909046, “DrugMatrix in vitro pharmacology data”.

Sequence of Cytochrome P450 2E1 (P05181 whole entry): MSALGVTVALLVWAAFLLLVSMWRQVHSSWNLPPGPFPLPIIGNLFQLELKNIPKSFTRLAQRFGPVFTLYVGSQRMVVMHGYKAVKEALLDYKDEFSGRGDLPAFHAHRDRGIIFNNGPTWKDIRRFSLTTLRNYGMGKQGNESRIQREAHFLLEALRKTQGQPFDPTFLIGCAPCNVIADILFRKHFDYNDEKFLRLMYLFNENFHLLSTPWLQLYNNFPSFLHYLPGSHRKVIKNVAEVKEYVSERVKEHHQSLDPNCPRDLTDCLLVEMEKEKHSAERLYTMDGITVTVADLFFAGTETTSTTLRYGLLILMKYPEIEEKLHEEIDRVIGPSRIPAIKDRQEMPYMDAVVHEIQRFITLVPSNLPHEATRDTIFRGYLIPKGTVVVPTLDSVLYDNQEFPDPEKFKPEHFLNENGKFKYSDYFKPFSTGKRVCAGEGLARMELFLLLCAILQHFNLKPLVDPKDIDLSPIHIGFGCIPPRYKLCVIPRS

As to `CC1=NN(c2ccccc2)C(=O)C1` [EDARAVONE], the IC50 entry (in data set [1]; on Leukotriene C4 synthase; on Cytochrome P450 2E1; against Cathepsin G; on Glycine receptor; against Neutrophil elastase) was “Not Active” each time. The IC50 entry (on Glucocorticoid receptor; in data set [2]; in data set [3]) was “Not Active” throughout. In addition, the Ki result (on Cytochrome P450 2E1; in data set [3]) was “Not Active” throughout.
Regarding `CC(C)C[C@H]1C(=O)N2CCC[C@H]2[C@]2(O)O[C@](NC(=O)[C@@H]3C=C4c5cccc6[nH]cc(c56)C[C@H]4N(C)C3)(C(C)C)C(=O)N12` [ERGOCRYPTINE], the IC50 entry (in [1]; on Leukotriene C4 synthase; against Cytochrome P450 2E1; against Cathepsin G; against Glycine receptor; against Neutrophil elastase) was “Not Active” each time. Further, the IC50 entry (at Glucocorticoid receptor; in [3]) was “Not Active” in each case. The Ki entry (on Cytochrome P450 2E1; in data set [3]) was “Not Active” throughout. Further, in [2], the negative logarithm of the IC50 (pIC50) is 7.32. For the same molecule, in [2], the negative logarithm of the Ki (pKi) was 7.62.
Regarding `CC(C)(C(=O)O)c1ccc(C(O)CCCN2CCC(C(O)(c3ccccc3)c3ccccc3)CC2)cc1` (stereo not drawn) [FEXOFENADINE], the IC50 result (in [1]; against Leukotriene C4 synthase; at Cytochrome P450 2E1; against Cathepsin G; at Glycine receptor; against Neutrophil elastase) was “Not Active” in each case. The IC50 entry (against Glucocorticoid receptor; in [2]; in data set [3]) was “Not Active” in each case. For the same molecule, the Ki result (at Cytochrome P450 2E1; in data set [3]) was “Not Active” throughout.
Consider `CN1CCN(c2c(F)cc3c(=O)c(C(=O)O)cn(CCF)c3c2F)CC1` [FLEROXACIN], for which the IC50 entry (in [1]; against Leukotriene C4 synthase; against Cytochrome P450 2E1; at Cathepsin G; against Glycine receptor; on Neutrophil elastase) was “Not Active” each time. Further, the IC50 result (at Glucocorticoid receptor; in [2]; in [3]) was “Not Active” in each case. Further, the Ki entry (at Cytochrome P450 2E1; in [3]) was “Not Active” in each case.
`O=c1[nH]c(=O)n([C@H]2C[C@H](O)[C@@H](CO)O2)cc1F` [FLOXURIDINE]: the IC50 entry (in data set [1]; on Leukotriene C4 synthase; against Cytochrome P450 2E1; against Cathepsin G; at Glycine receptor; against Neutrophil elastase) was “Not Active” each time. In addition, the IC50 entry (against Glucocorticoid receptor; in data set [2]; in data set [3]) was “Not Active” in each case. Besides, the Ki result (on Cytochrome P450 2E1; in data set [3]) was “Not Active” throughout.
Consider `COC(=O)Nc1nc2cc(C(=O)c3ccc(F)cc3)ccc2[nH]1` [FLUBENDAZOLE], for which the IC50 result (in [1]; on Leukotriene C4 synthase; against Cytochrome P450 2E1; on Cathepsin G; on Glycine receptor; on Neutrophil elastase) was “Not Active” in each case. For the same molecule, the IC50 result (against Glucocorticoid receptor; in data set [2]; in data set [3]) was “Not Active” each time. The Ki entry (at Cytochrome P450 2E1; in data set [3]) was “Not Active” each time.
In the case of `O=C(O)P(=O)(O)O` [FOSCARNET], the IC50 result (in data set [1]; at Leukotriene C4 synthase; on Cytochrome P450 2E1; against Cathepsin G; against Glycine receptor; against Neutrophil elastase) was “Not Active” in each case. The IC50 result (at Glucocorticoid receptor; in [2]; in data set [3]) was “Not Active” each time. Moreover, the Ki entry (on Cytochrome P450 2E1; in data set [3]) was “Not Active” throughout.
As for `O=c1c(-c2ccc(O)cc2)coc2cc(O)cc(O)c12` [GENISTEIN], the IC50 entry (in data set [1]; against Leukotriene C4 synthase; against Cytochrome P450 2E1; against Cathepsin G; against Glycine receptor; at Neutrophil elastase) was “Not Active” each time. Further, the IC50 result (against Glucocorticoid receptor; in [2]; in data set [3]) was “Not Active” in each case. Moreover, the Ki entry (at Cytochrome P450 2E1; in [3]) was “Not Active” in each case.
For the molecule `CCC1=C(C)CN(C(=O)NCCc2ccc(S(=O)(=O)NC(=O)N[C@H]3CC[C@H](C)CC3)cc2)C1=O` [GLIMEPIRIDE], the IC50 entry (in [1]; at Leukotriene C4 synthase; against Cytochrome P450 2E1; against Cathepsin G; on Glycine receptor; against Neutrophil elastase) was “Not Active” in each case. The IC50 result (against Glucocorticoid receptor; in [2]; in data set [3]) was “Not Active” each time. The Ki result (on Cytochrome P450 2E1; in [3]) was “Not Active” throughout.
For `Nc1cc(-c2ccncc2)c[nH]c1=O` [INAMRINONE], the IC50 result (in data set [1]; against Leukotriene C4 synthase; at Cytochrome P450 2E1; on Cathepsin G; against Glycine receptor; at Neutrophil elastase) was “Not Active” in each case. The IC50 result (against Glucocorticoid receptor; in data set [2]; in data set [3]) was “Not Active” each time. The Ki entry (on Cytochrome P450 2E1; in data set [3]) was “Not Active” each time.
Regarding `CN1CCC(=C2c3ccccc3CC(=O)c3sccc32)CC1` [KETOTIFEN], the IC50 result (in data set [1]; at Leukotriene C4 synthase; at Cytochrome P450 2E1; at Cathepsin G; on Glycine receptor; at Neutrophil elastase) was “Not Active” throughout. For the same molecule, the IC50 entry (on Glucocorticoid receptor; in [3]) was “Not Active” each time. For the same molecule, the Ki entry (at Cytochrome P450 2E1; in data set [3]) was “Not Active” in each case. Also, the pIC50 in data set [2] was 5.43. For the same molecule, in data set [2], the pKi was 5.74.
